Laboratory results from patent US8629164B2, “Inhibitors of NF-κB” (Profectus Biosciences, Inc., priority 2009, dated 2014).
Entries after “also recorded” stand apart in the source; their conditions may differ.

How the values were obtained:
[1] = system: IL-6 secretion from MDA-MB-231 cells; experiment: IL-6 secretion from MDA-MB-231 cells; type: cell-based
Protocol: (§1) Specifically, A and B show the effects of the compound of Example 1 on IL-6 and IL-8 secretion from MDA-MB-231 cells stimulated by 20 ng/mL TNF-α. The cells were treated with the indicated concentrations of the compound of Example 1 for 2 hours, and then TNF-α was added and incubation continued for 4 hours.

[2] = system: IL-8 secretion from MDA-MB-231 cells; experiment: IL-8 secretion from MDA-MB-231 cells; type: cell-based
Protocol: as §1

[3] = system: NF-κB; experiment: NF-κB-dependent luciferase expression after IR in p65+/+ MEFs; conditions: 10 Gy IR
[4] = system: mouse embryonic fibroblasts (MEFs)
[5] = system: collagen-induced arthritis; experiment: Mouse model of collagen-induced rheumatoid arthritis (CIA)
[6] = 20 μM, TNF-α 20 ng/mL, MDA-MB-231

**Q.** Which results are given for `O=C(NC1=CC(=O)C2OC2C1O)c1cccnc1O` (racemic) [Example 1, (±)-2-hydroxy-N-(2-hydroxy-5-oxo-7-oxabicyclo[4.1.0]hept-3-en-3-yl)nicotinamide]?
**A.** IL-6 secretion, TNF-α stimulated [1, 6]: completely inhibited; inhibition of constitutive IL-6 secretion ([1]; MDA-MB-231, unstimulated): dose-dependent manner; IL-8 secretion, TNF-α stimulated [2, 6]: completely inhibited; inhibition of constitutive IL-8 secretion ([2]; MDA-MB-231, unstimulated): dose-dependent manner

**Q.** Which “NF-κB-dependent luciferase expression after IR” value [3] does the source give for `O=C(NC1=CC(=O)C2OC2C1O)c1cc2ccccc2nc1O` (racemic) [Example 2, (±)-2-hydroxy-N-(2-hydroxy-5-oxo-7-oxabicyclo[4.1.0]hept-3-en-3-yl)quinoline-3-carboxamide] here?
**A.** The value was “reduced luciferase gene transcription significantly; also recorded: significantly reduced luciferase expression”.

**Q.** And the “cytotoxicity to MEFs” value ([4]; 1.4 μM)?
**A.** Its value is “non-cytotoxic”.

**Q.** What about the “radio-sensitivity of PARP-1+/+ MEFs to IR” value ([4]; 1.4 μM) of the same molecule?
**A.** The value was “increased radio-sensitivities”.

**Q.** What about the “LD50 of IR + compound” value ([4]; p65+/+ MEFs, 1.4 μM, IR alone 2.3 Gy) of the same molecule?
**A.** Its value is 1.5 Gy.

**Q.** What about the “radio-sensitization of p65−/− MEFs” value ([4]; p65−/− MEFs) of the same molecule?
**A.** Its value is “no further effect”.

**Q.** What about the “anti-inflammation effects vs vehicle treated group” value ([5]; Example 2 15 mg/kg s.c. qd 21-35, etanercept 50 ug/mouse ip qd 21-35, P<0.05) of the same molecule?
**A.** The value was “statistal significant anti-inflammation effects”.

**Q.** What about the “hind paw erythema and swelling (arthritis index score)” value ([5]; daily d21-d35) of the same molecule?
**A.** Its value is “significantly reduced”.

**Q.** And the “histological evaluation of joints” value ([5]; day 35)?
**A.** The value was “significant reduction of inflammation”.

**Q.** What about the myeloperoxidase activities ([5]; mouse, in vivo) of the same molecule?
**A.** Its myeloperoxidase activities is “concomitant reduction”.

**Q.** What about the “tolerability of efficacious doses in mice” value ([5]; mouse, in vivo) of the same molecule?
**A.** Its value is “well tolerated”.
